Experimental data reported in publication PMC10117637 (Frontiers in Pharmacology, 2023).

Columns and labels:
Caco-2 cells = assay: Cell viability assay (MTT), nontoxic concentration; format: cell-based, human; conditions: 48 h
Protocol: The cytotoxicity of EDM and DEDM was assessed in Caco-2 cells using the aforementioned MTT test. These alkaloids were produced as solutions in DMSO and then diluted in cell culture media. Inoculating Caco-2 cells (1 × 10^4cells/well) in 96-well plates with 200 μL of media. After additional 48 h of incubation with EDM and DEDM (final test alkaloids concentrations ranged from 0.4 to 200 μM, and DMSO was less than 0.05%), the medium was discarded. To each well, an aliquot of 190 μL freshly prepared DMEM (serum-free) having 10.0 μL MTT (5 mg/mL) was added. The medium in every well was then removed from the plate after a further 4 h at 37°C of incubation. In 100 μL of DMSO, the purple formazan product was dissolved. Using a microplate reader, the ratio of absorbance (treated to untreated cells) at 490 nm was employed to measure cell viability.

Caco-2 cell monolayers [1] = assay: Caco-2 cell transport assay (Papp, efflux ratio); conditions: Caco-2 monolayers
Protocol: (§1) The Center of Cellular Resources at the Chinese Academy of Sciences (Shanghai, China) provided the human colon adenocarcinoma cell line Caco-2, and the experiment utilized 15–30 generations of these cells. DMEM enriched with 15% FBS, 1% non-essential amino acids, 1% Penicillin-Streptomycin Solution (×100), and 1% sodium pyruvate was utilized to cultivate cells at 37°C in a humidified atmosphere of 5% CO2. The cells were separated from flasks when they achieved the anticipated confluence threshold (70%–80%), and they were then inoculated in 12-well plates at a density of 2–5 × 10^5 cells/cm^2 in a polycarbonate Transwell® (pore size: 0.4 µm; filter area: 1.12 cm^2). In the first week, the culture media was switched every 2 days.
(§2) Caco-2 monolayers were pre-cultured in HBSS for 15 min at 37°C after being rinsed two times with preheated Hanks' balanced salt solution (HBSS, pH = 7.4). The donor side was supplemented with DEDM (25, 50, and 100 μM) and EDM (2.5, 5, and 10 μM), and the receiver chamber was filled with the corresponding volume of HBSS medium. For 120 min, the plate was incubated at 37°C. At 0, 30, 45, 60, 90, and 120 min, a 0.5 mL aliquot of each receiver chamber’s sample was taken, and 0.5 mL of HBSS was added to keep the volume constant. By using high-performance liquid chromatography (HPLC), the samples were examined. The sample (300 μL) taken from the receiver chamber was mixed with 300 μL of acetonitrile, and the combination was centrifuged for 10 min at 13,000 rpm. Lastly, a 100 µL aliquot of the supernatant was injected into the HPLC for examination.
(§3) Two drugs were quantitatively determined using an Agilent 1,260 HPLC apparatus (United States). A C18 column (1.8 μm, 3.0 × 150 mm; Agilent Technologies, Santa Clara, CA, United States) was used for the separation, with a column temperature of 25°C. The mobile phase comprised both A (water) and B (acetonitrile). The ratio between A and B was 70: 30 with a flow rate of 1 mL per minute. For EDM or DEDM, 20 μL samples were injected and analyzed at 290 nm or 344 nm, respectively. Acetonitrile was used to create the standard stock solutions for EDM and DEDM, respectively. By serially diluting standard stock solutions with HBSS, working solutions were made. The effective concentrations were 0.04–2.5 μg/mL for EDM and 0.23–7.5 μg/mL for DEDM, respectively. These samples were stored at 4°C before being used.
(§4) Eqs 1, 2 were used to determine the apparent permeability coefficients (Papp) and efflux ratio (ER) of marker drugs: Papp=dQ/dtC0A (1) where dQ/dt is the cumulative transport rate (M/min), C0 is the initial concentration of each marker drug, and A is the surface area of the filters. ER=PappBL−AP/PappAP−BL (2)
(§5) Data for transport experiments are presented as the mean ± SD of six independent experiments.

Caco-2 cell monolayers [2] = conditions: pH 7.4
Protocol: as §1, §2, §3, §4, §5

in vitro = conditions: human, Caco-2, pH 7.4
Protocol: as §1, §2, §3, §4, §5

[3] = set-up: method as in Lin et al., 2012; conditions: ref Lin et al., 2012; cited from earlier work
[4] = Tissue distribution and PK after tail vein injection; format: in vivo, mice
Protocol: The mixture was then transferred to a sterile centrifuge tube after being repeatedly ground for 30 min with a tiny amount of ordinary saline added. After that, saline was added and ultrasonically processed for 1 h. In a vacuum freeze drier, the suspension was freeze-dried for 30 h. To make the injection, the freeze-dried powder was ultimately redissolved in regular saline. After acclimatization, all mice were acclimated before being randomly placed into four groups of three each: EDM (H) group, EDM (L) group, DEDM (H) group, DEDM (L) group. […] Supernatant plasma from the collected sample was transferred into another tube and kept at −80°C until analysis after being centrifuged at 3,000 rpm for 10 min. Immediately after blood was obtained, the mice were dissected. Saline was injected into the heart until the liver turned white. […] The calibration standards, tissue samples, and plasma samples were pretreated with acetonitrile for protein precipitation. […] To remove the denatured protein, the mixture was vortexed for 1 min and then centrifuged at 16,500 rpm for 10 min. The supernatant was finally injected into the LC-MS/MS in an aliquot of 100 µL for analysis. […] Using an isocratic elution, the EDM and DEDM were analyzed. […] With a flow rate of 0.3 mL/min, the ratio between A and B was 20: 80 for 4 min. The column temperature was kept at 35°C. Prior to injection, samples were transferred in an auto-sampler at a temperature of 4°C and 5 µL was the injection volume. […] The ion source was electrospray ionization (ESI) and adopts positive ion mode. The scan mode was multiple reaction monitoring (MRM). The operating conditions for the EDM and DEDM were 4000 V capillary voltage. […] Acetonitrile was used to prepare standard stock solutions for each type of EDM and DEDM individually. By diluting the standard stock solutions serially with acetonitrile, working standards for the EDM and DEDM were made. The calibration curve samples were acquired by spiking the series working standard solutions (10 μL) into a tube and evaporating the solvent, and then adding blank mouse tissue homogenate or plasma (100 μL). […] DEDM is used as an internal standard compound when detecting EDM. Meanwhile, when DEDM is detected, EDM is used as the internal standard compound. The final concentration of the internal standard compound is 10 ng/mL. […] For the Non-compartmental PK analysis, Thermo Kinetica (Version 5.0, Thermo Electron Corporation, Waltham, MA) was employed. Based on observed data, the time when the maximum tissue concentration was reached (Tmax) and the maximum tissue concentration (Cmax) were assessed. […] Additionally, the mean residence time (MRT) was computed. PK parameters are reported as the mean of […]. Linear and non-linear regressions were analyzed in Microsoft Excel 2016® (United States).

Papp at 120 min (in vitro) | SMILES | Nontoxic concentration (Caco-2 cells; Caco-2 cells, MTT) | bidirectional transport comparison, secretory (basolateral→apical) vs absorptive (apical→basolateral) permeability (Caco-2 cell monolayers [1]) | Papp (Caco-2 cell monolayers [2]) | Nontoxic concentration (Caco-2 cells; human) | oral bioavailability [3] | AUC0-t ([4]; Kindy, 10 mg/kg tail vein, mice, average) | time to maximum plasma concentration (Cmax) ([4]; mouse, in vivo) | Tmax ([4]; mouse, in vivo, iv, 5 mg/kg) | Tmax ([4]; mouse, in vivo, iv, 10 mg/kg, Tmax) | half-life ([4]; mouse, in vivo, iv, Lung, 5 mg/kg tail vein, mice, average) | Tmax ([4]; mouse, in vivo, time to peak concentration in different tissues) | permeability class (Caco-2 cell monolayers [1]; from Papp level)
– | O=c1c2cccc(O)c2nc2n1CCc1c-2[nH]c2ccccc12 [1-HRUP, 1-hydroxyrutaecarpine] | 100 µM | nearly comparable | ≥ 1 ×10⁻⁶ cm/s | – | – | – | – | – | – | – | – | –
~10 ×10⁻⁶ cm/s | COc1ccc2c(OC)c3ccoc3nc2c1 [EVT, evolitrine] | – | nearly comparable | – | 100 µM | – | – | – | – | – | – | – | –
≥ 1 ×10⁻⁶ cm/s | O=c1c2ccccc2nc2n1CCc1c-2[nH]c2ccccc12 [RUP, rutaecarpine] | – | more than twice as high in the secretory direction | – | 100 µM | – | – | – | – | – | – | – | –

SMILES | Papp at 120 min (in vitro) | Nontoxic concentration (Caco-2 cells; Caco-2 cells, MTT) | bidirectional transport comparison, secretory (basolateral→apical) vs absorptive (apical→basolateral) permeability (Caco-2 cell monolayers [1]) | Papp (Caco-2 cell monolayers [2]) | Nontoxic concentration (Caco-2 cells; human) | oral bioavailability [3] | AUC0-t ([4]; Kindy, 10 mg/kg tail vein, mice, average) | time to maximum plasma concentration (Cmax) ([4]; mouse, in vivo) | Tmax ([4]; mouse, in vivo, iv, 5 mg/kg) | Tmax ([4]; mouse, in vivo, iv, 10 mg/kg, Tmax) | half-life ([4]; mouse, in vivo, iv, Lung, 5 mg/kg tail vein, mice, average) | Tmax ([4]; mouse, in vivo, time to peak concentration in different tissues) | permeability class (Caco-2 cell monolayers [1]; from Papp level)
C[n+]1c2n(c(=O)c3ccccc31)CCc1c-2[nH]c2ccccc12 [dehydroevodiamine] | 10 ×10⁻⁶ cm/s | – | nearly comparable | – | 100 µM | 15.35% | 1.87 µg·h/g | ≤ 15 min | 45 min | 15 min | 107 min | 15 min | high permeability
